Source: patent US12441763B2, “Hangtaimycin derivatives and their preparation methods and application” (WUHAN UNIVERSITY, priority 2022, dated 2025)
Numbered stars: 1 amine (or outer) side, 2 acyl side, 3 side chain; on linkers, the order of the positions; unused ones are H or OH. Square brackets hold non-standard residues; d marks the D form. Peptide text beside a SMILES is read from it. * marks the point of attachment. X3 = O=C1C=C(CCC/C=C/C=C/C(=O)[*:2])CC(C(O)N[*:1])O1; X4 = O=C1C=C(CCC/C=C/C=C/C(=O)[*:2])CC(CN[*:1])O1; NMeW = CN[CH](Cc1c[nH]c2ccccc12)C(=O)O; X2 = C/C(=C\C(C)N[*:1])C(=O)[*:2]; Dhb = C/C=C(\N)C(=O)O; X1 = C/C=C/C=C\C(=O)*; Dha = C=C(N)C(=O)O

What was measured:
HepG2 cells [1] = experiment: Protection of the cell membrane of HepG2 after CCl4 injury (DiO/DAPI confocal imaging); format: cell-based; settings: HTMA pre-treatment 12 hours, then 70% CCl4 injury fluid 1 hour; vs model group
Method: Well-growing HepG2 cells were plated into confocal dishes with 1 mL of cell suspension containing 5×10^5 cells per dish. After 24 hours of incubation, pre-treat the cells with HTMA for 12 hours. The culture medium was removed from the confocal dish, then phenol red-free DMEM medium was added to the control group, 70% CCl4 injury fluid was added to the model and treatment groups. The dishes were placed in a 37° C. incubator for 1 hour to induce liver injury. After modeling, the culture medium was removed, the cells were rinsed with PBS, and fixed with 4% paraformaldehyde at room temperature for 10 minutes. Then the cells were rinsed with PBS three times, each time for 5 minutes. 10 μM DiO was added to the dish and stained the cells at room temperature for 30 minutes. Then the cells were rinsed with PBS three times, each time for 5 minutes. DAPI was dropped to counterstain the cell nucleus, incubating it in the dark for 30 minutes, and then the cells were rinsed with PBS three times. The images of the cells were captured using a laser scanning confocal microscope (Leica TCS SP8). The experimental design includes two positive controls: silymarin(S) and obeticholic acid (OBC).

[2] = system: alpha-naphthyl isothiocyanate-induced liver injury; experiment: Animal assay for hepatoprotective activity, alpha-naphthyl isothiocyanate-induced liver injury; format: in vivo, Wistar rats
Method: Male Wistar rats weighing around 220 g were randomly divided into 7 groups with 12 rats in each group. After grouping, they were fed a standard diet under standard conditions and were orally gavaged continuously. The dosages of the positive control groups obeticholic acid and silymarin were 10 mg/kg and 5 mg/kg respectively. The HTMA group was divided into low, medium, and high-dose groups with doses of 2.5, 5, and 10 mg/kg. The control and model groups were orally gavaged with 0.5% sodium carboxymethyl cellulose (solvent) daily. After 7 days of gavage, the rats fasted for 12 hours. On the 8th day, their weight was measured, and all rats except for the control group were intraperitoneally injected with alpha-naphthyl isothiocyanate (50 mg/kg, dissolved in olive oil) to induce liver injury. The rats in the control group were intraperitoneally injected with the same amount of olive oil. After two more days of gavage and 12 hours of fasting, blood samples were taken to detect biochemical indicators reflecting the degree of liver cell damage (FIGS. 27A˜27C) and bile stasis (FIGS. 28A˜28E), and liver immunohistochemical detection was performed (FIGS. 29A, 29B and 30A˜30F).

[3] = Antioxidant activity, DPPH free radical scavenging; format: biochemical; settings: 1~50 μg/mL, 0.1 mM DPPH, absorbance at 517 nm
Method: In this experiment, a 0.1 mM DPPH solution was prepared with ethanol, and each sample solution/dispersion was separately mixed with the DPPH solution in order to dilute it into a reaction product with a concentration gradient of 1˜50 μg/mL to evaluate the concentration-dependent antioxidant potential. The reaction product was measured for its absorbance (AS) at 517 nm using an ultraviolet-visible spectrophotometer, and its antioxidant activity was measured using DPPH removal as an indicator. The percentage of DPPH free radical scavenging is calculated by the following formula: […]
AS is the absorbance of the sample and A0 is the absorbance of the control (only DPPH solution).

[4] = system: carrageenan-induced paw inflammation; experiment: Anti-inflammatory effect in inflammatory model induced by carrageenan (paw); format: in vivo, Kunming mice; settings: 10 mg/mL; for right hind foot thickness: 10 μL subcutaneous into right hind paw, 4 hours after carrageenan injection, vs carrageenan+solvent group
Method: Male Kunming mice weighing 18˜22 g were adaptively reared for 1 day, and then randomly divided into […] (5˜6 mice per group): the saline+solvent group, the saline+HTM group, the saline+HTMP group, the saline+HTMA group, the saline+HTMB group, the saline+rapamycin (250 nM) group, the carrageenan+solvent group, the carrageenan+HTM group, the carrageenan+HTMP group, the carrageenan+HTMA group, the carrageenan+HTMB group, and the carrageenan+rapamycin (250 nM) group. Where doses used for HTM, HTMP, HTMA, and HTMB were set at 1, 3, and 10 mg/mL, and their solutions all contained 5% DMSO. Experiments were designed based on previous studies (Zhang et al., 2018). Carrageenan was used to induce paw inflammation, and the experimental procedure was as follows:
(1) The thickness of the right hind foot of mice was measured with a vernier caliper before the experiment, and the measurement site was marked.
(2) The experimental group was then subcutaneously injected into the right hind paw with 10 μL of different concentrations of compound solutions. The control group was injected with 10 μL saline into the right hind paw.
(3) After administration, the carrageenan group was injected subcutaneously with 30 μL of 1% carrageenan solution into the right hind paw, and the other groups were injected with an equal volume of saline. The thickness of the right hind foot of each mouse was measured at the same site every 1 hour for the following 4 hours to observe the effect of the compounds on the change in foot thickness.

bladder cancer = experiment: Antitumor activity, MTT cell viability, bladder cancer; format: cell-based; settings: 50 μg/mL, 24 hours, P<0.01
Method: (§1) In a 96-well microplate, 100 μL of culture medium was put in each well and inoculate four cell strains with a fusion degree of 80% at a density of 8×10^3 cells. Cells were grown at 37° C., CO2 (5%) and air (95%). Each 96-well plate was placed with a concentration gradient of 0˜100 μg/mL of test compounds HTM, HTMA, HTMB, and HTMP. After 24 hours of incubation, the medium was removed, and 0.5 mg/mL MTT solution was added to each medium with cells and continue to incubate the cells for 4 hours at 37° C. Then 100 μL of DMSO was added to dissolve formazan crystals. Finally, absorbance was measured at 570 nm using a microplate reader (Bioteck EON, USA). The viability of the cells was calculated as the percentage of cell viability compared to vehicle control-treated cells, which were arbitrarily assigned as 100% viability. Each independent experiment was repeated five times. (*P<0.05, **P<0.01, ***P<0.001)

HepG2 cells [5] = experiment: Cellular assay for hepatoprotective activity, CCl4-induced liver injury cell model; format: cell-based; settings: compared with the CCl4 group; HepG2 cell homogenates
Method: HepG2 cells were seeded into 24-well plates and kept at 37° C. in 5% CO2 in order to achieve 80% fusion. To evaluate the effects of HTMA, HTMB, and HTMP on aspartate aminotransferase (AST) and alanine aminotransferase (ALT) activity, and compare the results with those of Silymarin (positive control) (FIG. 26), a cellular assay for hepatoprotective activity was carried out using a CCl4-induced liver injury cell model. The cells were treated with the compounds followed by ultrasound disruption and cell homogenization to prepare the cell homogenates for analysis.

breast cancer = experiment: Antitumor activity, MTT cell viability, breast cancer; format: cell-based; settings: 50 μg/mL, 24 hours
Method: as §1

renal cancer = experiment: Antitumor activity, MTT cell viability, renal cancer; format: cell-based; settings: […], 24 hours, P<0.01
Method: as §1

[6] = system: acute inflammatory visceral pain caused by acetic acid; experiment: Writhing test (acetic acid); format: in vivo, Balb/c mice; settings: 30 minutes before 0.6% acetic acid i.p., counted within 20 minutes, vs solvent group, P<0.05
Method: The writhing test: Male Balb/c mice weighting 18˜22 g were randomly divided into four groups (9˜10 per group): the vehicle group (DMSO:saline=1:4, 1 ml/kg), the HTMB (1 mg/kg) group, the HTMB (3 mg/kg) group, and the HTMB (10 mg/kg) group. After tail vein administration for 30 minutes, mice were injected intraperitoneally with 10 mL/kg of freshly prepared 0.6% acetic acid (Rediet Tesfaye, et al. 2020), and the number of body twists of mice was observed and recorded within 20 minutes.

morphine-induced CPP = experiment: Conditioned place preference (CPP) experiments; format: in vivo, SD rats; settings: HTMB 3 mg/kg + morphine vs saline + morphine; test on the 10th day; P<0.05
Method: Conditioned place preference (CPP) experiments: Morphine, an opioid representative, and cocaine, a euphoric representative, were used to establish a model of addiction. On the first day, the baseline was assessed by placing the rats in the center compartment of the CPP apparatus and allowing ad libitum access to all compartments for 15 minutes. And then, male SD rats were divided into the saline+morphine group, the HTMB (3 mg/kg)+morphine group, the saline+cocaine group, and the HTMB (3 mg/kg, i.p.)+cocaine group. The rats were exposed to CPP training from day 2 to 9. On the 10th day, the channel between the three boxes was opened, and the rats were allowed to move freely in the three boxes for 15 minutes for the CPP test.

[7] = high-dose HTMA (HH) 10 mg/kg, oral gavage, vs liver injury model group, blood

C=C(NC(=O)/C=C/C=C/CCCC1=CC(=O)OC(C(O)NC(=O)/C(C)=C/C(C)NC(=O)/C=C\C=C\C)C1)C(=O)NC(C(=O)N/C(=C\C)C(=O)N(C)C(Cc1c[nH]c2ccccc12)C(=O)OC)C(C)OC (stereo not shown) [HTMA, Hangtaimycin A] (X1-[X2][X3][Dha]T(Me)[Dhb][NMeW]-OMe; configuration not given here)
cell membrane morphology (DiO fluorescence) (HepG2 cells [1]): protective effect on the cell membrane | effects on other biochemical indicators relative to high-dose HTMA ([2]; 2.5 mg/kg oral gavage (HTMA low dose LH)): weaker | LDH levels ([2]; 2.5 mg/kg oral gavage (HTMA low dose LH), vs liver injury model group): significantly reduced | effects on other biochemical indicators relative to high-dose HTMA ([2]; 5 mg/kg oral gavage (HTMA medium dose MH; silymarin)): weaker | LDH levels ([2]; 5 mg/kg oral gavage (HTMA medium dose MH; silymarin), vs liver injury model group): significantly reduced | levels of LDH ([2]; 10 mg/kg oral gavage (HTMA high dose HH; obeticholic acid), vs liver injury model group): significantly reduce | pathological conditions of liver tissue damage (liver tissue staining) ([2]; all doses of HTMA (2.5, 5, 10 mg/kg oral gavage), vs liver injury model group): therapeutic effect | levels of ALP [2, 7]: significantly reduce | levels of ALT [2, 7]: significantly reduce | levels of AST [2, 7]: significantly reduce | levels of GGT [2, 7]: significantly reduce | levels of TBA [2, 7]: significantly reduce | levels of TBIL [2, 7]: significantly reduce | antioxidant capacity (DPPH free radical scavenging) [3]: does not | right hind foot thickness ([4]; P<0.05): reduced | survival rate of bladder cancer (bladder cancer): significantly inhibited | ALT levels (HepG2 cells [5]): significantly reduced | AST levels (HepG2 cells [5]): significantly reduced | survival rate of breast cancer (breast cancer; P<0.01): significantly inhibited

C=C(NC(=O)/C=C/C=C/CCCC1=CC(=O)OC(CNC(=O)/C(C)=C/C(C)NC(=O)/C=C\C=C\C)C1)C(=O)NC(C(=O)N/C(=C\C)C(=O)N(C)C(Cc1c[nH]c2ccccc12)C(=O)OC)C(C)OC (stereo not shown) [HTMB, Hangtaimycin B] (X1-[X2][X4][Dha]T(Me)[Dhb][NMeW]-OMe; configuration not given here)
survival rate of renal cancer (renal cancer): significantly inhibited | number of body twists ([6]; 3 mg/kg tail vein): significantly lower | number of body twists ([6]; 10 mg/kg tail vein): significantly lower | antioxidant capacity (DPPH free radical scavenging) [3]: have antioxidant capacity | CPP scores, morphine-induced CPP (morphine-induced CPP): inhibit | improvement of the inflammation caused by carrageenan, comparison among HTMP, HTMA and HTMB [4]: best results | right hind foot thickness ([4]; P<0.05): reduced | number of leukocytes per unit area (HE staining) ([4]; carrageenan+HTMB group vs carrageenan+solvent group, P<0.05): statistical difference | survival rate of bladder cancer (bladder cancer): significantly inhibited | ALT levels (HepG2 cells [5]): significantly reduced | AST levels (HepG2 cells [5]): significantly reduced | survival rate of breast cancer (breast cancer; P<0.05): significantly inhibited
